Assay results published in ChEMBL document CHEMBL1123992, “Benzo[1,2-c:5,4-c']dipyrazoles: non-xanthine adenosine antagonists” (J Med Chem, 1988).

Tests used:
[1] = biological target: T1, Adenosine receptor A1 (Rattus norvegicus, UniProt P25099); experiment: In vitro binding affinity to Adenosine A1 receptor of rat cerebral cortical membranes using 1 nM [3H]PIA
T1 sequence (P25099 whole entry): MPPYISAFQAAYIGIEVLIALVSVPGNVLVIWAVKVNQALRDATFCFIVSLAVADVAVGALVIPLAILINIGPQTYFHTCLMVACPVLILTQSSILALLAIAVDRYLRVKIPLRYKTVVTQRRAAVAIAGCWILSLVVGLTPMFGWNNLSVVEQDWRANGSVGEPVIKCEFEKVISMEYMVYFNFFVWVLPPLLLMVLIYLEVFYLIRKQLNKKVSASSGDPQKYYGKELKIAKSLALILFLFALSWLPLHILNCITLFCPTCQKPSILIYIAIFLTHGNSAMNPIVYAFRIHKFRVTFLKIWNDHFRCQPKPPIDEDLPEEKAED

[2] = organism: Cavia porcellus; experiment: Reversal of spasmogen-induced contraction of guinea pig cylindrical tracheal segments induced by acetylcholine (1 x 10e -5 M); assay type: functional; settings: Trachea, read-out: ED50 (the source's name)
[3] = organism: Cavia porcellus; experiment: Reversal of spasmogen-induced contraction of guinea pig cylindrical tracheal segments induced by histamine (1x […] -5 M); assay type: functional; settings: Trachea, read-out: ED50 (the source's name)
[4] = biological target: Adenosine A2 receptor (Homo sapiens, UniProt P29275+P29274); experiment: In vitro binding affinity to Adenosine A2 receptor of human platelets by inhibition of NECA-stimulated adenylate cyclase; assay type: functional
[5] = organism: Cavia porcellus; experiment: Reversal of spasmogen-induced contraction of guinea pig cylindrical tracheal segments induced by 5-hydroxytryptamine (2x 10e-6 M); assay type: functional; settings: Trachea, read-out: ED50 (the source's name)
[6] = organism: Cavia porcellus; experiment: Reversal of spasmogen-induced contraction of guinea pig cylindrical tracheal segments induced by Carbachol (7.4 x 10e -7 M); assay type: functional; settings: Trachea, read-out: ED50 (the source's name)
[7] = organism: Cavia porcellus; experiment: Reversal of spasmogen-induced contraction of guinea pig cylindrical tracheal segments induced by histamine (1 x 10e -5 M); assay type: functional; settings: Trachea, read-out: ED50 (the source's name)
[8] = biological target: Adenosine A2 receptor (Cavia porcellus); experiment: Inhibition of 2-CADO-stimulated adenylate cyclase at Adenosine A2 receptor in guinea pig cerebral cortical slices
[9] = biological target: Adenosine A2 receptor (Rattus norvegicus, UniProt P29276+P30543); experiment: Inhibition of adenosine stimulated accumulation of cyclic AMP at Adenosine A2 receptor of VA13 fibroblasts of rat; assay type: functional
[10] = organism: Cavia porcellus; experiment: Reversal of spasmogen-induced contraction of guinea pig cylindrical tracheal segments induced by acetylcholine (1*10e-5 M); assay type: functional; settings: Trachea, read-out: ED50 (the source's name)
[11] = organism: Cavia porcellus; experiment: Reversal of spasmogen-induced contraction of guinea pig cylindrical tracheal segments induced by Carbachol (7.4x 10e-7 M); assay type: functional; settings: Trachea, read-out: ED50 (the source's name)
[12] = biological target: T1, Adenosine receptor A1; experiment: Binding of 1 nM [3H]CHA to Adenosine A1 receptor of rat cerebral cortical membranes; assay type: cell membranes, Membrane

Compound	Ki [1]	EC50 [2]	EC50 [3]	Ki [4]	EC50 [5]	other results
Cc1n[nH]c2c([N+](=O)[O-])c3[nH]nc(C)c3cc12	1.9 µM	25 µM	6.4 µM	14.4 µM	1.5 µM	
Cc1nn(C)c2c(C)c3c(cc12)c(C)nn3C	54 µM		38 µM	170 µM	20 µM	EC50 [6]: 9.6 µM
Cc1n[nH]c2c(Br)c3[nH]nc(C)c3cc12		2 µM			0.9 µM	EC50 [7]: 3 µM
CCn1c(=O)c2nc[nH]c2n(CC)c1=O						Ki [8]: 3 µM; Ki [9]: 1.2 µM
Cc1n[nH]c2c(C)c3[nH]nc(C)c3cc12	1.2 µM	8.5 µM	24 µM	4.8 µM	4.6 µM	
Cc1n[nH]c2cc3[nH]nc(C)c3cc12	8 µM			25.6 µM	2 µM	EC50 [7]: 1.4 µM; EC50 [10]: 4 µM
Cn1c(=O)[nH]c2[nH]cnc2c1=O [1-METHYLXANTHINE]						Ki [12]: 9 µM; Ki [9]: 6.6 µM
Cn1c(=O)c2[nH]cnc2n(C)c1=O [AMINOPHYLLINE]		57 µM	42 µM		21 µM	
O=c1[nH]c(=O)c2nc[nH]c2[nH]1 [XANTHINE]						Ki [9]: 130 µM

Now from value to compound, other results behind:

Ki [1]	EC50 [2]	EC50 [3]	Ki [4]	EC50 [5]	Compound	other results
> 100 µM		75 µM	80 µM	17 µM	Cc1nn(C)c2cc3c(cc12)c(C)nn3C	
27 µM		5.2 µM	56 µM	1.3 µM	CCn1nc(C)c2cc3c(C)nn(CC)c3cc21	EC50 [6]: 11 µM
10.5 µM		41 µM	32 µM	13 µM	CCCn1nc(C)c2cc3c(C)nn(CCC)c3cc21	EC50 [6]: 69 µM
20 µM	4.3 µM	4.1 µM	53 µM		CCn1nc(C)c2cc3c(C)nn(CC)c3c(C)c21	EC50 [11]: 1 µM
